Assay results reported in patent US20240360148A1 (SUVALENT THERAPEUTICS, INC., priority 2021, published 2024).
Converted amounts (≈) assume the structure as drawn. Read-outs that look alike come from different tables or passages of the source.

How the values were obtained:
[1] = Plasma protein binding, equilibrium dialysis, rat plasma; assay type: in vitro ADME; details: 5 hours at 37° C., read-out: PPB % bound Rat (converted)
Procedure: The compounds of interest were evaluated for various PK parameters. Specifically CACO permeability/efflux and plasma protein binding (PPP) were determined. Stock solutions were prepared at 10 mM in DMSO for test and reference compounds. Aliquots of the stock solution were diluted to 500× of final concentration (0.5 mM) with DMSO, then further diluted upon the addition of bank PE3-buffer to 20× of final concentration (20 μM). Then test and reference compounds were prepared in plasma at 1 μM. For 0 hour incubation: 25 μL of the plasma spiked with test and reference compounds was transferred into a 96-well sample preparation plate, and then 25 μL blank PB-buffer was added. The samples were quenched by 200 μL of IS solution to prepare [Initial]0h samples. For 5 hours incubation: 100 μL of the plasma spiking with test and reference compounds was loaded on donor side, and 100 μL of blank PB-buffer were loaded on receiver side of the equilibrium dialysis device. Samples were incubated in an air-bath shaker (60 rpm) for 5 hours at 37° C. After 5 hours incubation, 25 μL of samples (from both the donor sides and receiver sides of the dialysis apparatus) was aspirated and added into new sample preparation plates, separately. 25 μL of blank PB-buffer was added to donor side samples and 25 μL of blank plasma was added to receiver side samples to balance the matrix. The samples were quenched with 200 μL of IS solution. The assay plate was shaken at the vibrator (Hangzhou Allsheng, MX100-4A) for 10 min (600 rpm) and then centrifuged at 5,594×g for 15 min (Thermo Multifuge×3R). An aliquot of the 50 μL supernatant was taken from each well and diluted by 50 μL distilled water, then analyzed by UPLC-MS/MS.

SAE1 = SAE1 (Homo sapiens (Human), UniProt Q9UBE0+Q9UBT2); experiment: SAE High Throughput Biochemical Assay (HTRF), 15 min preincubation; details: read-out: 15 min preincubation HTRF IC50 (μM) Ave, SAE1 12.5 nM, ATP 100 μM
SAE1, sequence (Q9UBE0 whole entry): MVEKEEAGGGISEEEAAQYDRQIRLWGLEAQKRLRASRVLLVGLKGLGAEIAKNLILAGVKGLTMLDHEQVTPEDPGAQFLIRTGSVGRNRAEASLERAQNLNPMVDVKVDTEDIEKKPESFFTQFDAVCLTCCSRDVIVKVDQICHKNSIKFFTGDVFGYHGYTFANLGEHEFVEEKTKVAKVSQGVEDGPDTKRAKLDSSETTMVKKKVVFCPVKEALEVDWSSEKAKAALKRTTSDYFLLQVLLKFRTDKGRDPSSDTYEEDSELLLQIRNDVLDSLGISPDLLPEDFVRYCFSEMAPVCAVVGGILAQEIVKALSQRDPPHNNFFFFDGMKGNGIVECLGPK
SAE1, sequence (Q9UBT2 whole entry): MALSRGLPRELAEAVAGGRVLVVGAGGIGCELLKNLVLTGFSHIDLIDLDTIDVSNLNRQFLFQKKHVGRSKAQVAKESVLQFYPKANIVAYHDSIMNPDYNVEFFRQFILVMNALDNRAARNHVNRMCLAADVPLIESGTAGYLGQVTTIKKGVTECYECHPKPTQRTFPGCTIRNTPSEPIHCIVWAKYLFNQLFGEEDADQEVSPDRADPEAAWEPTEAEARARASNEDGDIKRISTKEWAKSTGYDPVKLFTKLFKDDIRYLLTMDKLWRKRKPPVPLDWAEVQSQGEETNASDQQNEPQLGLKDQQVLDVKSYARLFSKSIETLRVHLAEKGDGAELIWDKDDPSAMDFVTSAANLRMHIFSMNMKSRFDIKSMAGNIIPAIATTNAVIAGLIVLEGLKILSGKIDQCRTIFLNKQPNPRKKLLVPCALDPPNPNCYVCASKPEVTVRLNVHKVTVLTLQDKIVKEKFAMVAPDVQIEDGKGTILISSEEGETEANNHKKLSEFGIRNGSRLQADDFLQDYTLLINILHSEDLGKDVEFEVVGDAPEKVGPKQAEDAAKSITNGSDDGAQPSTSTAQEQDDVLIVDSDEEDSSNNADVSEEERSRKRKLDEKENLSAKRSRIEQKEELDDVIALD
Method in brief: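 SAE1 (12.5 nM) was preincubated with compound for 15 min at RT in HEPES pH 7.5, 0.1% BSA, 10 mM MgCl2. The reaction was then started with SUMO-GST and UBC9-His (40 nM each) plus 100 μM ATP for 45 min. After KF stop, HTRF (anti-GST-XL665/anti-His-EuK) was read at 2 h and overnight; some compounds were tested singly at 25 micromolar as percent of control.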

Solubility Evaluation = assay type: physicochemical; details: kinetic from dmso stock, 1 hour at RT
Procedure: The compounds of interest were evaluated for their solubility in various biological solutions. Specifically, aliquots (8 μL) of reference and test compound stock solutions (10 mM) were added into 792 μL of buffer (PBS, pH7.4, FaSSIF, pH 6.5, or FaSSGF, pH 1.6) respectively (Final DMSO conc.: 1%). Sample tubes were shaken for 1 hour (1000 rpm) at RT. The experiment was calibrated using 300 μM spiked solution (SS) in MeOH/CAN (4:1) by adding 6 μL of 10 mM compound stock solution in 194 μL MeOH/ACN(4:1) ranging from 60 μM to 0.02 μM. The samples were centrifuged (10 min-12000 rpm) to precipitate un-dissolved particles. The supernatants were transferred to a new tube or plate. Supernatants were diluted 10 times and 100 times with 100 mM buffer then analyzed by LC-MS/MS. SGF=simulated gastric fluid, SIF=simulated intestinal fluid, PBS=phosphate buffered saline pH 7.4 Values are noted in μM.

[2] = PBS (phosphate buffered saline), aqueous buffer, phosphate buffered saline pH 7.4, 1% DMSO, read-out: Solubilities PBS
[3] = simulated intestinal fluid (FaSSIF, pH 6.5), 1% DMSO, read-out: Solubilities SIF

| fraction unbound at 5 h, 1 μM [1] | solubility at 1 h (Solubility Evaluation; [2]) | solubility at 1 h (Solubility Evaluation; [3]) | Structure (SMILES) | IC50 (SAE1) |
| --- | --- | --- | --- | --- |
| 0.004 | 41 µM (≈ 20 µg/mL) | 29 µM (≈ 14.2 µg/mL) | C=CC(=O)N1Cc2sc(C#N)c(C)c2[C@H](c2cccc(F)c2-c2cn(CC)nc2C(F)(F)F)C1 [Compound 222] | 0.1 µM |
| 0.062 | 30 µM (≈ 15.5 µg/mL) | 28 µM (≈ 14.5 µg/mL) | CCn1cc(-c2c(F)cccc2[C@@H]2CN(C(=O)/C=C/CNC)Cc3sc(C#N)cc32)c(C(F)(F)F)n1 [Example 50] | 0.51 µM |
| 0.021 | 97 µM (≈ 52.9 µg/mL) | > 100 µM | CCn1cc(-c2c(F)cccc2[C@@H]2CN(C(=O)/C=C/CN(C)C)Cc3sc(C#N)c(C)c32)c(C(F)(F)F)n1 [Example 46, (S, E)-6-(4-(dimethylamino)but-2-enoyl)-4-(2-(1-ethyl-3-(trifluoromethyl)-1 H-pyrazol-4-yl)-3-fluorophenyl)-3-methyl-4,5,6,7-tetrahydrothieno[2,3-c]pyridine-2-carbonitrile] | 0.2 µM |
